{
  "source": "patent US20090328243A1",
  "about": "“Secreted proteins as markers for cell differentiation” (priority 2003, published 2009)",
  "key": {"ES cells": {"system": "ES cells", "details": "in vitro; literature (Seiler et al., ALTEX 2002); cited from earlier work"}, "[1]": {"system": "ES cells stably transfected with the α-MHC-SEAP vector (D3 mouse embryonic stem cells), differentiation into cardiac cells", "details": "EB culture supernatants after 13 days", "description": "After 13 days culture supernatants were assayed for SEAP activity. Shown are mean values of duplicate samples from which background SEAP activity was substracted. Activities are expressed as percentage of SEAP activity in samples containing only solvent (DMSO) but no retinoic acid.\nAll incubations of cell cultures were performed at 37° C. in a humidified atmosphere containing 5% CO2.\nCells were collected by centrifugation (800 g for 5 min) and resuspended in Iscove's Modified Dulbecco's Medium (IMDM, Invitrogen) supplemented with 20% (v/v) fetal bovine serum (FBS, Invitrogen) at a density of 2×10^6 cells/ml. To aggregate ES cells, 4 ml of this suspension were incubated on a 6 cm bacteriological dish (Greiner) on a rocking platform (GFL 3006) with agitation (50 rpm). After 6 hours, 2 ml of that culture were added to 13 ml IMDM containing 20% FBS in a T25 flask (Falcon). The flask was incubated with rocking (50 rpm; GFL 3006) for 18 hours. During this procedure ES cell aggregates (embryoid bodies; EBs) were formed.\nIn 10 cm petri dishes (bacteriological grade, Greiner) medium was prepared consisting of IMDM supplemented with 20% FBS and retinoic acid added from above stocks to yield final concentrations of 10^−7 M, 10^−8 M, 10^−9 M, 10^−10 M, 10^−11 M, and 10^−12 M retinoic acid, respectively. One dish received DMSO (final concentration 0.1% (v/v)) without retinoic acid (solvent control). Each dish contained 10 ml of medium. 70 EBs were transferred into each petri dish and incubated for 4 days.\nSubsequently, EBs were transferred to 6-well plates (tissue culture grade; Becton-Dickinson). Each well contained 3 ml IMDM with 20% FBS and retinoic acid and DMSO as described above for the culture in 10 cm dishes. […]\nSamples were assayed for SEAP activity using the Great EscAPe SEAP Fluorescence Detection Kit (Becton-Dickinson) following the manufacturer's instructions. Fluorescence was measured using a microplate reader (Safire, Tecan). Background activity was determined by assaying a sample of fresh medium (Knockout™ D-MEM supplemented with 20% (v/v) Knockout™ SR)."}},
  "note": "Like-named read-outs stand apart in the source and are kept apart here.",
  "data": [
    {"smiles": "CC1=C(/C=C/C(C)=C/C=C/C(C)=C/C(=O)O)C(C)(C)CCC1", "note": "[retinoic acid, all-trans retinoic acid]", "values": [
      {"measurement": "generation of cardiomyocytes from ES cells", "setting": "ES cells", "result": "inhibit the generation of cardiomyocytes"},
      {"measurement": "SEAP activity", "setting": "[1]; 10^−8 M retinoic acid, solvent (DMSO) control", "result": "decreased sharply"},
      {"measurement": "SEAP activity", "setting": "[1]; retinoic acid at concentrations higher than 10^−8 M (10^−7 M)", "result": "no activity was observed"},
      {"measurement": "SEAP activity as compared to controls", "setting": "[1]; retinoic acid below 10^−9 M, solvent (DMSO) control", "result": "no influence"}
    ]}
  ]
}
